From ChEMBL document CHEMBL1201862, “PubChem BioAssay data set” (2004)
Active and inactive are the calls of the source.

Assays:
[1] = molecular target: T1, Heat shock factor protein 1 (Mus musculus, UniProt P38532); experiment: decrease of HSF1-responsive luciferase luminescence – cell-based, NIH3T3, dose retest, confirmation (AID 2382); assay type: functional;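 further: NIH3T3 fibroblasts with HSF1-driven luciferase reporter stressed by proteasome inhibitor MG132; luminescence from HSF1-driven luciferase expression after 8 hours of MG132 stress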
T1 sequence (P38532 whole entry): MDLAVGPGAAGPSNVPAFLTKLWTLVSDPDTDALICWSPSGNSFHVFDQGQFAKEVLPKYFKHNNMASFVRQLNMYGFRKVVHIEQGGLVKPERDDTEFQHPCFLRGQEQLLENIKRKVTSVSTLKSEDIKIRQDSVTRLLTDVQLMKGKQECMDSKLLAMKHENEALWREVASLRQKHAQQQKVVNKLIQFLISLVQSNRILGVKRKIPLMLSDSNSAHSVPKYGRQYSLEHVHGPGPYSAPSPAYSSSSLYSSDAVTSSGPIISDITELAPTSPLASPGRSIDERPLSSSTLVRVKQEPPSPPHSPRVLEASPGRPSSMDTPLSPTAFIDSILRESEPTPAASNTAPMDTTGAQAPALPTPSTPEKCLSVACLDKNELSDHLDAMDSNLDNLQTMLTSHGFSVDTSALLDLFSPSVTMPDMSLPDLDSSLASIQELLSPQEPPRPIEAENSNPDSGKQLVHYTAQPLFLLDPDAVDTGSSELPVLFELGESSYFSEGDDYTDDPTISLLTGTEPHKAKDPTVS

cells = assay type: functional
[2] = molecular target: T2, Rac GTPase-activating protein 1 (Homo sapiens, UniProt Q9H0H5); experiment: blockers of MgcRacGAP-driven Rac1 GTP hydrolysis – biochemical, ADP Hunter fluorescence, primary and confirmatory, confirmation (AID 624330); assay type: functional
T2 sequence (Q9H0H5 whole entry): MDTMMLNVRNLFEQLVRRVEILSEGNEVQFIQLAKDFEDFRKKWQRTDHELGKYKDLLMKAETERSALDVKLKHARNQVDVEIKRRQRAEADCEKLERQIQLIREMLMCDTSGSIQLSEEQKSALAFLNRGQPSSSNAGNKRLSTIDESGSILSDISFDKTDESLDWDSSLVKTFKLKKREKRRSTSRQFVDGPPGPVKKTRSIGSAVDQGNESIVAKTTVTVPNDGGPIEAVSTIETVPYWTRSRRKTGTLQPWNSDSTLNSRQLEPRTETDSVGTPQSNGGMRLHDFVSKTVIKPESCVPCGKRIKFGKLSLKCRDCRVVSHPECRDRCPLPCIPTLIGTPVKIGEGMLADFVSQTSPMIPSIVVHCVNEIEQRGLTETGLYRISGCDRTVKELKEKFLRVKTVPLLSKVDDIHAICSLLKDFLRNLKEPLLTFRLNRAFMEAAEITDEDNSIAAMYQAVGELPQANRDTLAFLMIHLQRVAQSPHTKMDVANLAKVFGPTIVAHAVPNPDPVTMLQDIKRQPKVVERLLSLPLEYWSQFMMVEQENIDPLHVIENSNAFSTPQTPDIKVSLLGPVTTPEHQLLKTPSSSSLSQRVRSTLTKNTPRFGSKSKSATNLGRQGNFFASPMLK

Cytochrome P450 1A2 = molecular target: T3, Cytochrome P450 1A2 (Homo sapiens, UniProt P05177);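 further: PubChem cytochrome P450 panel assay, CYP1A2 panel member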
T3 sequence (P05177 whole entry): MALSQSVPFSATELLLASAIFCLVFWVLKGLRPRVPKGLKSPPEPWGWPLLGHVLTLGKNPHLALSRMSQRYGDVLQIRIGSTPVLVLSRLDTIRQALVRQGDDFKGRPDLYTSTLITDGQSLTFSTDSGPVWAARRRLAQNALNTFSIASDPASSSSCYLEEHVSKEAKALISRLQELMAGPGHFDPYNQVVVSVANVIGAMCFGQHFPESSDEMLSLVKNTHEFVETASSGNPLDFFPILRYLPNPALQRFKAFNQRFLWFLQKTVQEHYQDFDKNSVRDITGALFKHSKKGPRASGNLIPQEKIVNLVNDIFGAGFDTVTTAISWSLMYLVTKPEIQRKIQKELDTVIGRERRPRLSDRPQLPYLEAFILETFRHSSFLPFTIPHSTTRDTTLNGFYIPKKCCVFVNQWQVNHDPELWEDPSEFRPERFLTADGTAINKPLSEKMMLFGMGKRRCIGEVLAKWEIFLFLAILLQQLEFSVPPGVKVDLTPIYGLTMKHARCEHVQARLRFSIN

Streptococcus = experiment: GAS UMAA2166 growth inhibition – luminescence, BacTiterGlo, counter-screen for streptokinase expression inhibitor project, dose response (AID 1915); assay type: functional, organism-based;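 further: potency for reduction of bacterial viability or growth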
[3] = molecular target: T4, Replicative DNA helicase DnaB (Mycobacterium tuberculosis, UniProt P9WMR3); experiment: DnaB intein splicing inhibitors, dose response, biochemical, cell-free fluorescence (AID 449749); assay type: functional
T4 sequence (P9WMR3 whole entry): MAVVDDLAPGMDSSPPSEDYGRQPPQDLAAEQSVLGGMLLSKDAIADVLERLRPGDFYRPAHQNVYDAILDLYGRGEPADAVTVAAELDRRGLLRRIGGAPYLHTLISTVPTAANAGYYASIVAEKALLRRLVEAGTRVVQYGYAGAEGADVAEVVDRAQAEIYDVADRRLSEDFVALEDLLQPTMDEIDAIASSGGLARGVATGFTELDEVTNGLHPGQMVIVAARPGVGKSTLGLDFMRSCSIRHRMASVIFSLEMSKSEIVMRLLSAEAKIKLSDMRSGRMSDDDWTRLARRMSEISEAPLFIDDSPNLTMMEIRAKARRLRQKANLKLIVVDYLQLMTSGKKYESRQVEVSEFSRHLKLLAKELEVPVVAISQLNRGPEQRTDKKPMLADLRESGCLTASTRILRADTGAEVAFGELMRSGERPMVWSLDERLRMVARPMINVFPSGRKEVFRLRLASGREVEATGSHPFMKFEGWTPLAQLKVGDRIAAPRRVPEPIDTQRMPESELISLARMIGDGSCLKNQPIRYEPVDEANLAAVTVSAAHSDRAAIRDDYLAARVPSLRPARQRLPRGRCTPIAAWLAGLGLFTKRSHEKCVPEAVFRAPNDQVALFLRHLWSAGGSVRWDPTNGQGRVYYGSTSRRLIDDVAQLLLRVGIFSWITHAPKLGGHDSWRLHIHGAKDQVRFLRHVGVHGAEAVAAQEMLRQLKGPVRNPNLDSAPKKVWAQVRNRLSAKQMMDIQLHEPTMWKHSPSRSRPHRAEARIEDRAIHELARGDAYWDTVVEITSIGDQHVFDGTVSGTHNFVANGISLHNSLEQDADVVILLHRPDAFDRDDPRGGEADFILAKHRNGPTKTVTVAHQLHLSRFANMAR

[4] = tested on: Streptococcus sp. 'group A'; experiment: Streptococcus pyogenes SK(-)GAS viability under kanamycin – luminescence, BacTiterGlo, confirmation, counter-screen for streptokinase expression inhibitor project, dose response (AID 1900); assay type: functional, organism-based
Protein RecA = molecular target: T5, Protein RecA (Mycobacterium tuberculosis, UniProt P9WHJ3); experiment: Fluorescence Cell-Free Homogeneous Dose Retest to Identify Inhibitors of RecA-Intein Splicing Activity. [Related pubchem assays (depositor defined):AID2097, AID2223, AID489010, AID492950]; assay type: functional
T5 sequence (P9WHJ3 whole entry): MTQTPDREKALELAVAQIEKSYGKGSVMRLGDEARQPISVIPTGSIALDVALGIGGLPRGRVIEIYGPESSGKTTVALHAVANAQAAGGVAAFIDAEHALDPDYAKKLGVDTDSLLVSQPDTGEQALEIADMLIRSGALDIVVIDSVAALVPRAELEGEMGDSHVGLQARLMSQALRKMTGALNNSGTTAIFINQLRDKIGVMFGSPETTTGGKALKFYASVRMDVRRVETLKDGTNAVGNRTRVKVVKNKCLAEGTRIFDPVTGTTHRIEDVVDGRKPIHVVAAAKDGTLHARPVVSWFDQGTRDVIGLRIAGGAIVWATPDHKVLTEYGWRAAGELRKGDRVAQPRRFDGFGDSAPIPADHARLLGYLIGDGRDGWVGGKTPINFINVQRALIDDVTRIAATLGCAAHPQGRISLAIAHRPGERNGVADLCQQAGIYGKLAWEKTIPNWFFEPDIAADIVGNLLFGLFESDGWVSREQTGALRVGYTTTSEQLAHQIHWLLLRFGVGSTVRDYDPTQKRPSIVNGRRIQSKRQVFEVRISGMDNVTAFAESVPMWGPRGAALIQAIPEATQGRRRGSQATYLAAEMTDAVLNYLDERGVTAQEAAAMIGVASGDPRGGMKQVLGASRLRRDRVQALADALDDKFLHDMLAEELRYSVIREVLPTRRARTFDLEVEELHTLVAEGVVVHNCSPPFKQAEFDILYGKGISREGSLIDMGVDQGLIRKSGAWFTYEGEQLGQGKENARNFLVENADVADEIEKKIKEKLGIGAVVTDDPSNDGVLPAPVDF

Streptokinase A = molecular target: T6, Streptokinase A (Streptococcus pyogenes serotype M1, UniProt P10520); experiment: viability-normalized secreted streptokinase activity reduction – plasminogen activation absorbance, OD405, dose response (AID 1914); assay type: functional, Streptococcus pyogenes M1 GAS;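 further: secreted streptokinase activity via plasminogen activation per viability signal from cell pellet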
T6 sequence (P10520 whole entry): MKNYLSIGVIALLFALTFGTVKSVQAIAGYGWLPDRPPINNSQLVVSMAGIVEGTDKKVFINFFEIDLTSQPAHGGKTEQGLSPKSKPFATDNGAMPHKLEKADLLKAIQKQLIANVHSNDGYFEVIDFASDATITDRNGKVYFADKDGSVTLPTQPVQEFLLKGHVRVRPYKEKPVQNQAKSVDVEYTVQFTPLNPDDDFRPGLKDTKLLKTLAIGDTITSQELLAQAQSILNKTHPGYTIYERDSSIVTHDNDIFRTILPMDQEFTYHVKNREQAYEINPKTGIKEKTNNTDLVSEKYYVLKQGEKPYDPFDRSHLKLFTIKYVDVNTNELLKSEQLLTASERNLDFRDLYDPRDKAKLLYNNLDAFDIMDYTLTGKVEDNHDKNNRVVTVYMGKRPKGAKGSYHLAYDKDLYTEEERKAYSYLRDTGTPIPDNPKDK

Cytochrome P450 2D6 = Cytochrome P450 2D6 (Homo sapiens, UniProt P10635);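 further: CYP2D6 member of a cytochrome P450 panel assay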
Sequence of Cytochrome P450 2D6 (P10635 whole entry): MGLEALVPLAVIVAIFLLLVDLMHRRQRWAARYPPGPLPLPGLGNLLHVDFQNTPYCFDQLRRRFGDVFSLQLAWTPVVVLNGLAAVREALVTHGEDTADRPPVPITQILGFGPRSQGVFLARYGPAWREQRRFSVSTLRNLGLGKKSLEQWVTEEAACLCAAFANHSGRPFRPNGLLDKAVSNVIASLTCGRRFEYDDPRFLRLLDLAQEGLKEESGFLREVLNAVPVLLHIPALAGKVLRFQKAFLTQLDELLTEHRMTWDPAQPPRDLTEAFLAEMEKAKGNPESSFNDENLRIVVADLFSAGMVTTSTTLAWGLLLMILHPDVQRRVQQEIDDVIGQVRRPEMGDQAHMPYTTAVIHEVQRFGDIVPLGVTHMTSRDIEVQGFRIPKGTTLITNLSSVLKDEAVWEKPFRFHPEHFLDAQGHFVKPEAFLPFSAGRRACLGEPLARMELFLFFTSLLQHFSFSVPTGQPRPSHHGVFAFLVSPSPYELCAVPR

CCCc1cc(=O)oc2cc(C)cc(OCC(=O)NCCCn3ccnc3)c12
EC50 [1]: > 195 µM (not active)

O=[N+]([O-])c1ccc(CN2CCN(c3ccccc3Cl)CC2)o1
IC50 (cells): 0.84 µM (active)

N#CC1=C(S)N(c2ccc(F)cc2)C(c2ccco2)NC1=O (stereo not drawn)
IC50 [2]: 84.4 µM (active)

CCOc1cc(/C=N/NC(=O)c2ccc(NC(=O)C3CC3)cc2)ccc1O
IC50 [2]: 72.4 µM (active)

COc1ccc(Oc2ncc3ncc(=O)n(CCc4ccccc4)c3n2)cc1
AC50 (Cytochrome P450 1A2): 0.631 µM (inconclusive)

COc1ccc(CN2CCNC(=O)C2CC(=O)NC2CC(C)(C)CC(C)(C)C2)cc1OC (stereo not drawn)
EC50 [1]: > 195 µM (not active)

O=C(OCc1cccc([N+](=O)[O-])c1)c1ccc2ccccc2n1
IC50 (cells): 5.04 µM (active)

COc1cc(/C=N/NC(=O)CNC(=O)c2cccs2)ccc1O
IC50 [2]: 42.2 µM (active)

Cc1ccc(C(=O)N/C(=C/c2ccco2)C(=O)Nc2cccc(C(=O)O)c2)cc1
EC50 [1]: > 195 µM (not active)

O=C(NCc1cccs1)c1ccccc1[N+](=O)[O-]
EC50 [1]: > 195 µM (not active)

COc1ccccc1NC1=C(Cl)C(=O)N(C2CCCCC2)C1=O
EC50 [1]: > 195 µM (not active)

CCCCCCCC/C=C\CCCCCCCC(=O)NCc1ccc(O)c(OC)c1 [OLVANIL]
AC50 (Cytochrome P450 1A2): 20 µM (inconclusive)

O=[N+]([O-])c1ccc(SCCc2ccncc2)cc1
EC50 [1]: > 195 µM (not active)

CN1CCc2cc(Cl)c(O)cc2[C@H](c2ccccc2)C1
AC50 (Cytochrome P450 1A2): 31.6 µM (inconclusive)

CCN1CCN(CC(O)COC(c2ccccc2)c2ccccc2C)CC1 (stereo not drawn)
IC50 [2]: 64.1 µM (active)

CCNc1ncc2nc(-c3cn(C)c4ccccc34)c(=O)n(Cc3cccc(OC)c3)c2n1
AC50 (Cytochrome P450 1A2): 12.6 µM (inconclusive)

O=S(=O)(N[C@H]1C[C@@H](NS(=O)(=O)OCC(Cl)(Cl)Cl)C2CCCCC21)OCC(Cl)(Cl)Cl (stereo partly drawn)
EC50 (Streptococcus): 5.38 µM (active) | AC50 [3]: 3.31 µM (active) | EC50 [4]: 2.45 µM (active) | EC50 (Protein RecA): 50.9 µM (active) | EC50 (Streptokinase A): 1.7 µM (active)

CN/C(=N\c1ccc(C2=NNC(=O)C[C@@H]2C)cc1)NC#N
AC50 (Cytochrome P450 1A2): 39.8 µM (inconclusive)

COc1ccc(OC)c(CN2CCN(Cc3ccc(OC)c(OC)c3OC)CC2)c1
IC50 [2]: 77.7 µM (active)

CCS(=O)(=O)NC(C)C(c1cccs1)N1CCN(c2ccc(OC)cc2)CC1 (stereo not drawn)
IC50 [2]: 91.3 µM (active)

Cc1ccccc1C(=O)Nc1nnc(-c2ccco2)o1
IC50 (cells): 5.71 µM (active)

CC(C)Oc1ccc(/C=C(/NC(=O)c2ccccc2)C(=O)NCCC(=O)O)cc1
EC50 [1]: > 195 µM (not active)

COc1ccccc1N1CCN(C[C@@H](C(=O)NC(C)(C)C)c2ccccc2)CC1
AC50 (Cytochrome P450 2D6): 20 µM (inconclusive) | AC50 (Cytochrome P450 1A2): 0.631 µM (inconclusive)

O=C(NC(=S)NCCC1=CCCCC1)c1cncc(Br)c1
EC50 [1]: > 195 µM (not active)

CCOC(=O)c1cc(NCc2cccs2)ccc1N1CCOCC1
IC50 [2]: 93 µM (active)

C/C(=N/NC(=O)c1ccncc1)C1=C(O)CC(C)(C)CC1=O
IC50 (cells): 5.71 µM (active)

CC(=O)Nc1ccc(N=Nc2ccc(O)cc2)cc1
IC50 [2]: 27.1 µM (active)

CCOC(=O)c1cc(-c2csc(COc3ccccc3Cl)n2)on1
IC50 (cells): 0.4 µM (active)

Oc1cc(C(F)(F)F)nc2c(C(F)(F)F)cccc12
EC50 (Streptococcus): 8.27 µM (active) | EC50 [4]: 2.62 µM (active) | IC50 (cells): 50 µM (active)

CCOC(=O)C(=O)NC12CC3CC(CC(C3)C1)C2
IC50 (cells): 44.5 µM (active)

CCN(CC)c1ccc(NC(=O)C2CCCC2)cc1
IC50 [2]: 63.5 µM (active)
